Earlier results as cited in patent US12324431B2, “Compositions and methods for scalable production and delivery of biologicals” (priority 2017, dated 2025).

Tested on: insects
Conditions: potency similar to imidacloprid

For “orally active insecticidal peptide-1 [OAIP-1]”, the toxicity to insects is listed as “highly toxic”.
